From patent US8193238B2, “Inhibition of microtubule protrusion in cancer cells” (University of Maryland, Baltimore, priority 2006, dated 2012) come the findings set out here.

Molecules are shown by their SMILES.

Assay [1] concerns MCF10A cells. In words: Chemical inhibition of Latrunculin-A-enhanced microtubule protrusions in suspended cells. It counts as cell-based, human. The following applies: MCF10A in suspension, then LA 5 μM one hour; sodium orthovanadate 1 mM, S-Trityl-L-Cysteine 100 μM, TDZD-8 20 μM. How it is done:
MCF10A cells were placed into suspension in the presence of the indicated chemical inhibitors targeted at specific signaling pathways or the corresponding vehicle controls. Cells were then treated with the actin polymerization inhibitor, Latrunculin-A (LA, 5 μM) for one hour to enhance protrusions. […] Thus, protrusions can be reduced by chemical inhibition of specific signaling proteins.

The test system of assay [2] is detached mammary epithelial cells. In words: Protrusions of detached mammary epithelial cells, general statements. It is filed as cell-based, human and mouse. How it is done:
Time-lapse video microscopy of detached mammary epithelial cells detected the extension of long, dynamic protrusions of the plasma membrane, and the present inventors have characterized the cytoskeletal mechanism underlying this novel observation. […] This response may be relatively short-lived, in specific embodiments, since mammary epithelial cells die by apoptosis within about 24 hours in suspension. However, cell lines that resist apoptosis through expression of either Bcl-2 or Bcl-xL will persistently form protrusions. Previous studies by the inventors indicate that such apoptotically-resistant cell lines will not form tumors in mice and lie dormant in distant tissues, in specific embodiments of the invention. […] These microtubule processes can extend more than 3 times the cell diameter, and undergo a rapid probing motion more than once per second. Formation of these microtubule protrusions is necessary for efficient cell-cell and cell-substratum attachment. In particular embodiments of the invention, this inherent microtubule response in detached mammary epithelial cells provides at least some of the invasive characteristics of breast cancer, independent of any tumor-specific genetic alteration, for example.
Breast tumor cells enter the bloodstream long before the development of clinically evident metastasis. However, the early presence of such bloodborne cells predicts poor patient outcome. Nearly 90% of human breast tumors arise as carcinomas from mammary epithelial cells, so it is important to characterize how these cells respond to the detached conditions that they would experience in the bloodstream. In the present invention, mammary epithelial cell lines produce long and dynamic protrusions of the plasma membrane when detached. Although human and mouse mammary epithelial cell lines die by apoptosis within 16 hours of detachment, this protrusive response persists for days in cells overexpressing either Bcl-2 or Bcl-xL, for example. […] Since bloodborne metastasis depends on both cell-cell and cell-matrix attachment, microtubule-based protrusions in detached mammary epithelial cells provide a novel target that could influence the metastatic spread of breast tumors.
Detachment-induced increases in Glu-tubulin could promote plasma membrane protrusions of microtubules by preventing efficient capture at the actin cortex. […] Therefore, our current model is that detachment increases stabilized microtubules enriched in Glu-tubulin, while decreased actin polymerization simply promotes extension of these microtubule protrusions.

A further assay concerns microtentacles. Put plainly: Microtentacle frequency after pretreatment with Okadaic Acid or Calyculin-A. Conditions: pretreated 1 h, suspended with or without Latrunculin-A. It counts as cell-based. As to the method: In FIG. 35, cells were pretreated for 1 h with DMEM media alone (Control) or the indicated concentrations of either Okadaic Acid (OKA) […] or Calyculin-A (Cal-A) to promote vimentin disassembly. Cells were then suspended by trypsinization with or without addition of Latrunculin-A (LA) to enhance microtentacle frequency.

The subject of assay [3] is EpH4-Bcl2 cells. In words: Cell-substratum attachment assay. Conditions: for attachment of cells to tissue culture surfaces: EpH4-Bcl2 (B19), 1 hr in suspension with inhibitor, then replated. It counts as cell-based, mouse. How it is done:
(§1) In FIG. 6A, EpH4-Bcl2 cells were suspended over agarose and treated with inhibitors as above. Following treatment, cells were plated into 0.3% methylcellulose media over agarose and the rate of cell-cell attachment was followed by Hoescht DNA staining. […] Similar results were found in three independent experiments. In FIG. 6B, EpH4-Bcl2 cells suspended over agarose for one hour in DMEM or DMEM containing LA (5 μM), Colchicine (1 μM), or the combination. Reattachment of these cells to either uncoated tissue culture plates or those pre-coated with laminin was followed by XTT cell viability assay. Values represent mean+S.D. of raw XTT values of three separate experiments.
Equivalent numbers of B19 cells were suspended over 6-well plates coated in 2% agarose in serum-free media containing 5 μM Latrunculin-A (LA; BioMol, Plymouth Meeting, Pa.), 100 μM colchicine (Col; Sigma, St. Louis, Mo.), 5 μg/ml nocodazole (Noc), or 1 μg/ml vinblastine (VinB; Sigma) for a duration of 1 hr at 37° C. Cells were collected by centrifugation (1000 rpm×5 min) and drug containing media was aspirated. Cells were resuspended in EpH4 serum-containing growth media and aliquoted out into 24 wells (8 timepoints×3 replicates) of a 96-well clear bottom black plate. After plating, cells were allowed to attach for duration of 15 min, 45 min, 1.5 hr, 2 hr, 3 hr, 4 hr, 5 hr, and 24 hr at which point the media was aspirated from the replicate wells, washed twice in PBS, and fresh growth media was replaced at each timepoint. After 24 hr, all wells were aspirated and cells were incubated in growth media containing Hoescht 33342 (1:5000) for 30 min at 37° C. to label all attached cells. Fluorescence was measured using a Biotek Synergy HT Multi-Detection Microplate Reader (Winooski, Vt.) at excitation wavelength 360 nm and an emission filter of 460 nm followed by subsequent analysis using the KC4 Data Analysis software. The percentage of cell attachment for each treatment exposure was calculated as the RFU at each timepoint divided by the RFU at 24 h (maximum attachment). The standard deviations of triplicates at each timepoint are shown.
(§2) To determine if these microtubule protrusions influence the ability of cells to form attachments, the cells were treated with inhibitors of actin or tubulin polymerization and assessed both cell-cell and cell-substratum attachment (FIG. 6). […] Induction of such nonspecific attachment activity in detached mammary epithelial cells could promote tumor cell dissemination, particularly when apoptotic resistance allows this response to continue for extended periods.

The subject of assay [4] is EpH4-Bcl2 cells. In words: Cell-cell attachment assay. It is filed as cell-based, mouse. Conditions: EpH4-Bcl2 in 0.3% methylcellulose over agarose, 5 hours. As to the method: as §1
B19 cells were seeded onto 10 cm dishes until 80% confluency. The media was aspirated and cells were incubated in fresh growth media containing Hoescht 33342 (1:5000) for 30 min at 37° C. to label all attached cells. The cells were washed twice in PBS, detached by trypsinization, and an equivalent number of cells were resuspended in serum-free media containing 0.3% methylcellulose with either 5 μM Latrunculin A, 100 μM Colchicine, 1 μg/ml vinblastine, or 5 μg/ml nocodazole and plated over 2% agarose-coated 24-well plates. The progression of cell-cell adhesion over time was visualized by the EpiChemi3 Imaging System (UVP, Inc.; Upland, Calif.) using an excitation wavelength of 365 nm and a blue band pass filter. Images were obtained with an attached Hamamatsu CCD camera (Hamamatsu Photonics, Hamamatsu City, Japan) and analyzed with UVP Labworks Image Acquisition and Analysis Software v. 4.6.
as §2

The test system of another assay is EpH4 cells. Put plainly: Protrusions in suspended cells treated with cytoskeletal inhibitors (EpH4). It is filed as cell-based, mouse. Conditions: EpH4, 15 minutes of suspension; Latrunculin-A 5 μM, Colchicine 1 μM. How it is done:
(§3) In FIG. 2A, after 15 minutes of suspension, protrusions in EpH4 and MCF10A cells are quite small (Control, white arrows). […] In FIG. 2B, populations of live, suspended cells were scored blindly for two or more protrusions longer than the cell radius. Each bar represents the mean+S.D. for three experiments in which at least 100 single cells were counted.
EpH4 cells were suspended in either DMEM (Control) or media containing 5 μM Latrunculin-A (LA), 1 μM Colchicine or the combination of both drugs for 30 minutes. Cells were then spun onto glass coverslips and fluorescently stained for α-tubulin (green) and polymerized actin (red). Protrusions that are difficult to see by phase contrast are easily discernible with immunostaining for α-tubulin (white arrows). Protrusions contain little polymerized actin, except at points of concentration, which are often at the end (arrowhead).
EpH4 and B19 cells were suspended over 2% agarose coated plates to prevent attachment in either serum-free DMEM or media containing. Latrunculin-A (5 μM) to enhance protrusions. For co-staining of α-tubulin and actin, suspended cells were then centrifuged onto poly-L-lysine coated coverslips (280 g×5 min), fixed in 3.7% formaldehyde in PBS for 10 min, and permeablized with 0.1% Triton X-100 in PBS. Adhered cells were then stained for 1 hr at room temperature using FITC-conjugated anti-α-tubulin (1:200; Sigma), Alexa-594 phalloidin (1:100; Molecular Probes), and Hoescht 33342 (1:5000; Sigma).
(§4) In order to initially characterize the cytoskeletal mechanism underlying these protrusions, suspended cells were treated with inhibitors of actin and tubulin polymerization (FIG. 2). After 15 minutes of suspension, the protrusions in untreated EpH4 or MCF10A cells remain fairly short (FIG. 2, white arrows). These early protrusions can often be difficult to detect with phase-contrast microscopy, due to interfering light refraction from the plasma membrane. […] Protrusions were more easily visible with immunofluorescence than phase contrast microscopy (FIG. 3, white arrows). Although actin filament staining was generally low along the length of the protrusion, dense points of actin were often found at the end of protrusions (FIG. 3, arrowheads).

The test system of assay [5] is MCF10A cells. In words: Protrusions in suspended cells treated with cytoskeletal inhibitors (MCF10A). The following applies: MCF10A, 15 minutes of suspension; Latrunculin-A 5 μM, Colchicine 1 μM. It is filed as cell-based, human. How it is done:
as §3, §4
The nontumorigenic human mammary epithelial cell line (MCF10A) or the indicated human breast tumor cell lines were grown in suspension for 30-60 minutes, and protrusions were counted in random fields with phase-contrast microscopy. Values represent the mean±S.D. of three experiments in which at least 100 cells were counted. […] This effect was most apparent in the highly metastatic but exemplary Bt-474 and MDA-MB-231 cells (pictured, black arrows). The exemplary MCF10A cells show far fewer and shorter protrusions at the same time point (pictured, white arrows). Such protrusions are not observed in attached cells.

As to `CCCCCC[C@@H]([C@@H](C)O)n1cnc2c(N)ncnc21` (racemic) [EHNA], in the assay on MCF10A cells [1], the protrusions result is recorded as “reduced protrusions, but these results were not statistically significant”.
As for `CC[C@]1(O)C[C@H]2CN(CCc3c([nH]c4ccccc34)[C@@](C(=O)OC)(c3cc4c(cc3OC)N(C=O)[C@H]3[C@@](O)(C(=O)OC)[C@H](OC(C)=O)[C@]5(CC)C=CCN6CC[C@]43[C@@H]65)C2)C1` [vincristine], in assay [2], the protrusions entry is reported as “inhibited”.
Consider `COC[C@@H]([C@H](O)[C@H](O)C(=O)NCC[C@H](C)c1nc(/C=C/C[C@@H]2O[C@]3(C[C@@H](O)[C@@H]2C)O[C@H]([C@H](C[C@H](O)[C@H](C)[C@H](O)[C@H](C)/C=C(C)/C(C)=C/C=C/C(C)=C\C#N)OC)[C@H](OP(=O)(O)O)C3(C)C)co1)N(C)C` [Calyculin-A], for which the microtentacles entry with microtentacles is “reduce microtentacles significantly”; in the assay with microtentacles (listed as calyculin-A), “reduces microtentacles”.
Regarding `COc1ccc(CNc2nc(NCc3ccc(OC)cc3)c3ncn(C(C)C)c3n2)cc1` [myoseverin], the protrusions entry in assay [2] is recorded as “inhibited”.
Consider `CC[C@]1(O)C[C@@H]2CN(CCc3c([nH]c4ccccc34)[C@@](C(=O)OC)(c3cc4c(cc3OC)N(C)[C@H]3[C@@](O)(C(=O)OC)[C@H](OC(C)=O)[C@]5(CC)C=CCN6CC[C@]43[C@@H]65)C2)C1` [vinblastine], for which the protrusions entry in assay [2] is on record as “inhibited”. Moreover, the “attachment of cells to tissue culture surfaces” value in the assay with EpH4-Bcl2 cells [3] is recorded as “significantly delayed attachment”. Also, the “cell-cell attachment (clustering)” value in the assay with EpH4-Bcl2 cells [4] is “prevented efficient clustering”.
The matching figures for `COC(=O)Nc1nc2ccc(C(=O)c3cccs3)cc2[nH]1` [nocodazole]: “inhibited”, “significantly delayed attachment” and “prevented efficient clustering”.
On to `C=C1[C@@H](O)[C@@H]2O[C@]3(CC[C@H](/C=C/[C@@H](C)[C@@H]4CC(C)=C[C@@]5(O[C@H](C[C@@](C)(O)C(=O)O)CC[C@H]5O)O4)O3)CC[C@H]2O[C@@H]1[C@@H](O)C[C@H](C)[C@H]1O[C@@]2(CCCCO2)CC[C@H]1C` [Okadaic acid], for which the microtentacles entry was “reduce microtentacles significantly” with microtentacles and “reduces microtentacles” in the assay with microtentacles (listed as okadaic acid).
With `CN[C@H]1CCc2cc(OC)c(OC)c(OC)c2-c2ccc(OC)c(=O)cc21` [colcemid], the protrusions result in assay [2] was “inhibited”.
`[Na+].[Na+].[Na+].[O]=[V]([O-])([O-])[O-]` [sodium orthovanadate]: in the assay on MCF10A cells [1], the protrusions entry was “significantly reduces protrusions”.
For `COc1cc2c(c(OC)c1OC)-c1ccc(OC)c(=O)cc1[C@@H](NC(C)=O)CC2` [Colchicine], the protrusions result was “inhibited” in assay [2], “prevented protrusions” in the assay with EpH4 cells and “prevented protrusions” in the assay with MCF10A cells [5]. Further, the “attachment of cells to tissue culture surfaces” value in the assay on EpH4-Bcl2 cells [3] is “significantly delayed attachment”. The “cell-surface attachment to uncoated or laminin-coated plates (XTT)” value in the assay on EpH4-Bcl2 cells [3] (EpH4-Bcl2 suspended one hour, LA 5 μM, Colchicine 1 μM) is recorded as “significantly prevents initial cell attachment”. The “cell-cell attachment (clustering)” value in the assay on EpH4-Bcl2 cells [4] is given as “prevented efficient clustering”.
For `N[C@@H](CSC(c1ccccc1)(c1ccccc1)c1ccccc1)C(=O)O` [S-Trityl-L-Cysteine], the protrusions entry in the assay on MCF10A cells [1] is recorded as “significantly reduces protrusions”.
